For orientation: IC50 means the point on the concentration scale where inhibition reaches its midpoint. Higher therefore signals weaker potency in that assay.

The text below walks through data of ChEMBL document CHEMBL5120887, “Hybrid Diterpenic Meroterpenoids from an Endophytic Penicillium sp. Induced by Chemical Epigenetic Manipulation” (J Nat Prod, 2022).

The assay has as its target Acetylcholinesterase (Homo sapiens, UniProt P22303). Kind of assay: Inhibition of AChE in human Erythrocyte incubated for 20 mins by Ellman reagent based spectrophotometry. It counts as cell-based. (In Ellman's method for cholinesterases, released thiocholine reacts with DTNB.)

SMILES strings stand for the structures.

Acetylcholinesterase, sequence (P22303 whole entry): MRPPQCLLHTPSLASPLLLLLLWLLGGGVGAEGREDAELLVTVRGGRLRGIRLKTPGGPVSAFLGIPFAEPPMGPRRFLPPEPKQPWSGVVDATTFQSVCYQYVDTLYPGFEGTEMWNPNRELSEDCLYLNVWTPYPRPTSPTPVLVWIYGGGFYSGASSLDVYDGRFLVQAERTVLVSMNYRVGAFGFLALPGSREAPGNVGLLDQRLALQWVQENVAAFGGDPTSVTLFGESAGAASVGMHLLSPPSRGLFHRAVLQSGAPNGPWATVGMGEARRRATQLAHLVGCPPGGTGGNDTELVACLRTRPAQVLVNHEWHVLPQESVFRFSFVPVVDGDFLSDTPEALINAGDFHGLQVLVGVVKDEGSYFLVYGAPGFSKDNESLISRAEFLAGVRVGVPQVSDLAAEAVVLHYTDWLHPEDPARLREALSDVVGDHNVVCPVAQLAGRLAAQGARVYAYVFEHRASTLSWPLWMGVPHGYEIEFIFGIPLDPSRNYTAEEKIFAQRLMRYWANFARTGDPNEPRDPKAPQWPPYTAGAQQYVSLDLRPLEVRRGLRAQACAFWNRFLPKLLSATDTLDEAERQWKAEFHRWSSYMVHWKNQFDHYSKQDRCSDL

`C=C(C)[C@]1(O)CC[C@@]2(C)C3=Cc4c(cc(-c5cccnc5)oc4=O)O[C@]3(C)[C@@H](O)C[C@@H]2[C@@]12CCC(=O)OC2`: half-maximal inhibition (IC50) required 13.9 µM.
